Assay results taken from patent US20030229137A1, “Methods of inhibiting osteoclast activity” (priority 2001, published 2003).

Experiments:
[1] = tested on: ATP release in human platelets; settings: applied five minutes before AA; cited from earlier work
[2] = tested on: AA-stimulated aggregation in human platelets; settings: applied five minutes before AA; cited from earlier work
[3] = tested on: synthesis of TXA2 in human platelets; settings: applied five minutes before AA; cited from earlier work
[4] = tested on: synthesis of PGE2 in human platelets; settings: applied five minutes before AA; cited from earlier work
[5] = tested on: osteoclast formation from PBMC; test: in vitro osteoclast formation assay (RANKL/M-CSF, MTS/TRAP); assay type: cell-based; settings: for IC50: Osteoclast, read-out: IC50 (osteoclast formation inhibition); for suppression of osteoclast formation under the test conditions (in words): Table 1 experiments
Procedure: Each of the kavalactones isolated in Example 1 was studied in an in vitro osteoclast formation assay. The protocol used (essentially that described in T. Yoneda et al., Endocrinology, 129(2):683-689 (1991) and H. Zhou et al., J Biol. Chem., 272, 14926 (2001)) is as follows:
(A) Osteoclast Formation Culture
1) Prepare assay wells (n=4) for each dilution of a test compound in a 384-plate. Each well contains 25 μl of 2× conc. of the compound in 10% FBS-media/0.5% DMSO.
2) Suspend PBMC in 10% FBS-media supplemented with 40 ng/ml of RANKL and 20 ng/ml of human M-CSF at 1.5 M cells/ml.
3) Vortex cell suspension and filtrate through mesh filter to remove cell aggregates.
4) Inoculate 25 μl of cell suspension to each well.
5) Centrifuge the assay plate at 1500 rpm (˜700 g) for 1 min.
6) Start osteoclast formation culture in a 5% CO2-incubator.
7) After 48 h of the culture, replenish 10 μl of 10% FBS-media supplemented with 120 ng/ml of RANKL and 60 ng/ml of M-CSF. Continue the culture until multiple osteoclasts are visible in control wells (up to 4˜5 days).
1) Add 6 μl of MTS reagent to each well and further incubate 1˜2 hrs.
2) Measure absorbance at 490 nm.
3) Discard MTS/culture media and fix cells in 60% acetone/0.38 M citrate buffer, pH 5.4 for 30 sec. Rinse cells with MQ once and air-dried.
4) Incubate each well in 25 μl of 5 mM p-nitrophenyl phosphate/tartrate/acetic acid solution for 2˜3 hrs (divert buffers from acid phosphate, leukocyte kit from Sigma #386-A).
5) Measure absorbance at 405 nm.
6) Discard p-nitrophenyl phosphate solution, rinse wells with MQ and stain cells with the acid phosphate, leukocyte kit.
7) Count multinucleate (>3) TRAP#-positive cell number under microscope. # Tartarate Resistant Acid Phosphatase

[6] = protocol of Example 2, PBMC with RANKL and M-CSF

For `COC1=CC(=O)O[C@@H](/C=C/c2ccccc2)C1` [(+)-kawain], the IC50 [1] is listed as 115 µM, the IC50 [2] is listed as 78 µM and the IC50 [3] is listed as 71 µM. The IC50 [4] was 86 µM.
For `C=CC[C@@H]1/C=C(\C)C[C@H](C)C[C@H](OC)[C@H]2O[C@@](O)(C(=O)C(=O)N3CCCC[C@H]3C(=O)O[C@H](/C(C)=C/[C@@H]3CC[C@@H](O)[C@H](OC)C3)[C@H](C)[C@@H](O)CC1=O)[C@H](C)C[C@@H]2OC` [FK506, reference compound], the IC50 [5, 6] was > 25 µg/mL.
In the case of `CC(=O)Oc1ccccc1C(=O)O` [aspirin, reference compound], the IC50 [5, 6] is reported as > 100 µM, the “suppression of osteoclast formation under the test conditions (in words)” value (shortened to “suppression of osteoclast formation”) [5] is reported as “do not suppress osteoclast formation” and the inhibition of osteoclasts ([5]; at 25 μM) is reported as “no inhibition”.
In the case of `Cc1ccc(-c2cc(C(F)(F)F)nn2-c2ccc(S(N)(=O)=O)cc2)cc1` [celecoxib, reference compound], the IC50 [5, 6] is reported as > 100 µM.
In the case of `COc1cc(/C=C/c2ccccc2)oc(=O)c1` [desmethoxyyangonin], the IC50 [5, 6] is reported as 32 µM.
For `COC1=CC(=O)O[C@@H](CCc2ccccc2)C1` [dihydrokawain], the “relative osteoclast formation inhibitory activity among the six kavalactones” value [5] was “relatively higher osteoclast formation inhibitory activity”, the IC50 [5, 6] was 10 µM and the inhibition of osteoclasts ([5]; at 15 μM) was “almost complete inhibition”.
`COC1=CC(=O)O[C@@H](CCc2ccc3c(c2)OCO3)C1` [dihydromethysticin] gave an IC50 [5, 6] of 13 µM.
`COC1=CC(=O)O[C@@H](/C=C/c2ccccc2)C1` [kawain] showed an IC50 [5, 6] of 28 µM.
For `COC1=CC(=O)O[C@@H](/C=C/c2ccc3c(c2)OCO3)C1` [methysticin], the “relative osteoclast formation inhibitory activity among the six kavalactones” value [5] was “relatively higher osteoclast formation inhibitory activity”, the IC50 [5, 6] was 13 µM and the inhibition of osteoclasts ([5]; at 15 μM) was “almost complete inhibition”.
For `CC/C(=C(\c1ccccc1)c1ccc(OCCN(C)C)cc1)c1ccccc1` [tamoxifen, reference compound], the “suppression of osteoclast formation” value [5] was “showed consistent activity”.
In the case of `COc1ccc(/C=C/c2cc(OC)cc(=O)o2)cc1` [yangonin], the “relative osteoclast formation inhibitory activity among the six kavalactones” value [5] is reported as “relatively higher osteoclast formation inhibitory activity”, the IC50 [5, 6] is reported as 8 µM and the inhibition of osteoclasts ([5]; at 10 μM) is reported as “almost complete inhibition”.
In the case of “IL-4: endogeneous osteoclast formation inhibitor, control compound”, the “suppression of osteoclast formation” value [5] is reported as “showed consistent activity” and the “IC50 (osteoclast formation inhibition)” value [5, 6] is reported as <0.001 µg/mL.
